The record followed here is patent publication US20090221559A1 (priority 2005, published 2009).

In data set [1] the target is T1, HCV NS5B polymerase (His-tagged, C-terminal 21 amino acid deleted NS5B, HC-J4) (Hepatitis C virus genotype 1b, UniProt O92972).
T1 construct: The cDNA encoding NS5B amino acid 1-570 (HC-J4, genotype 1b); His tag (His6, from pET-21b) (C); made in house; host or cells: E. coli BL21 (DE3)
The data set can be described thus: NS5b polymerase assay (biochemical RdRp assay, 3H-GTP incorporation, SPA beads). Also noted: species or system HCV genotype 1b. In short, it runs like this: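 3H-GTP incorporation into newly made RNA was captured on SPA beads added in EDTA after 2 h at 25 °C. Compounds in DMSO met preformed enzyme–template complex (200 nM truncated His-NS5B, HC-J4 1b; biotin-oligo(rG13)/poly(rC)) for 15 min at RT, then 600 nM GTP, 5 mM MgCl2, Tris pH 7.5 started polymerization.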

The subject of data set [2] is HCV replicon RNA replication in Huh-7 luc/neo (Huh-Luc) cells. The data set can be described thus: HCV replicon assay (stable replicon cell reporter assay, luciferase read-out). As to conditions: Hepatitis C virus, Huh-7, 72 h. It counts as cell-based, HCV type 1b. In short, it runs like this: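 Three-day compound exposure used Huh-Luc cells, which harbour an autonomously replicating genotype 1b NS3-NS5B replicon expressing luciferase and neo^R. Luciferase signal served as the replication read-out, and dose-response curves came from several concentrations per compound.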

The mark [3] stands for this setting: NS5B Polymerase Assay IC50, 200 nM enzyme, 3H-GTP incorporation, 2 h at 25° C.
Where [4] appears, read: read-out: Replicon Assay EC50, Huh-Luc cells, three days incubation, luciferase activity.
[5] abbreviates: NS5B Polymerase Assay IC50 (μM).
Where [6] appears, read: read-out: Replicon Assay EC50 (μM), Huh-Luc cells, incubation of three days, luciferase activity.

The structures appear in SMILES notation. Read-outs that look alike come from different tables or passages of the source.

T1 sequence (O92972 2417-3000, looked up, stated change not applied): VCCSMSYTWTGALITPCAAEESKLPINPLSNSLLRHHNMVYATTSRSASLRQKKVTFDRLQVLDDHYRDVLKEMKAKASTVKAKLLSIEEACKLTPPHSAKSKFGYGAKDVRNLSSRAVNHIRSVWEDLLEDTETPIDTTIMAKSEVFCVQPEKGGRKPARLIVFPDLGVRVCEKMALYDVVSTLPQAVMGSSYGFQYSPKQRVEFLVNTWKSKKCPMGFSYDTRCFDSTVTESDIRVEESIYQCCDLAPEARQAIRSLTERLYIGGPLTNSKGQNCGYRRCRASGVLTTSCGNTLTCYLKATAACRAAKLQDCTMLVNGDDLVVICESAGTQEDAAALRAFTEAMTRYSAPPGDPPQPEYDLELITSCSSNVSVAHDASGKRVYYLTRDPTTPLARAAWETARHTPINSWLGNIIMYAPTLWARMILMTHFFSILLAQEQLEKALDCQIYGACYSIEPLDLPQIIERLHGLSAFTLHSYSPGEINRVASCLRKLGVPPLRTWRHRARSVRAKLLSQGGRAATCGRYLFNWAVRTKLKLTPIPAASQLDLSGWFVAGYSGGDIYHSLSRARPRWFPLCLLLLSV

For `CC1(C)CC(=O)C2=C(C1)Nc1ccccc1N(C(=O)C(F)(F)F)C2c1ccc(Cl)cc1Cl` (stereo not drawn) [compound 107], the melting point was above 260 °C. For the same compound, the IC50 in data set [1] (setting [3]) is above 133 µM. Besides, the EC50 in data set [2] (setting [4]) came out at 11.5 µM.

The compound `CC(=O)N1c2ccccc2NC2=C(C(=O)CC(C)(C)C2)C1c1ccc(C(F)(F)F)cc1` (stereo not drawn) [compound 120] came in with a melting point above 250 °C. The same compound came in with an IC50 in data set [1] (setting [3]) above 133 µM. Moreover, in data set [2] (setting [4]), the EC50 amounted to 31.8 µM.

In turn, `CC(=O)N1c2ccccc2NC2=C(C(=O)CC(C)(C)C2)C1c1ccc(OCc2ccccc2)c(Cl)c1` (stereo not drawn) [compound 139, 10-acetyl-11-[4-benzyloxy-3-chlorophenyl]-3,3-dimethyl-2,3,4,5,10,11-hexahydro-1H-dibenzo[b,e][1,4]diazepin-1-one] gave a melting point of 197 °C. Besides, the half-maximal inhibitory concentration (IC50) in data set [1] (setting [3]) came to 1.01 µM. The EC50 in data set [2] (setting [4]) came to 2.9 µM.

For `CC1(C)CC(=O)C2=C(C1)Nc1ccccc1N(C(=O)CC#N)C2c1ccc(Cl)cc1Cl` (stereo not drawn) [compound 151], the melting point was above 260 °C. Also, the IC50 in data set [1] (setting [3]) is 1.25 µM. Moreover, the EC50 in data set [2] (setting [4]) was 18.4 µM.

On to `CC1(C)CC(=O)C2=C(C1)Nc1ccccc1N(C(=O)CCc1ccccc1)C2c1ccc(Cl)cc1Cl` (stereo not drawn) [compound 152], for which the melting point was 242 °C. In data set [1] (setting [3]), this compound showed a half-inhibitory concentration (IC50) of 24.1 µM. Moreover, in data set [2] (setting [4]), the EC50 came to 2.5 µM.

In turn, `CC1(C)CC(=O)C2=C(C1)Nc1ccccc1N(C(=O)c1ccco1)C2c1ccc(Cl)cc1Cl` (stereo not drawn) [compound 153] gave a melting point above 260 °C. This compound registered an IC50 in data set [1] (setting [3]) of 4.05 µM. In addition, the EC50 in data set [2] (setting [4]) is 18.6 µM.

`CC1(C)CC(=O)C2=C(C1)Nc1ccccc1N(C(=O)Cc1ccccc1)C2c1ccc(Cl)cc1Cl` (stereo not drawn) [compound 154] displayed a melting point above 260 °C. In addition, half-maximal inhibition in data set [1] (setting [3]) (IC50) was put at 123 µM. Moreover, in data set [2] (setting [4]), the EC50 is 5.46 µM.

`CC(C)NC(=O)N1c2ccccc2NC2=C(C(=O)CC(C)(C)C2)C1c1ccc(Cl)cc1Cl` (stereo not drawn) [compound 156] displayed a melting point above 260 °C. The midpoint of inhibition in data set [1] (setting [3]), the IC50, lay at 5.15 µM. Further, in data set [2] (setting [4]), the EC50 turned out to be 6.69 µM.

Consider `CN(C)c1ccc(NC(=O)N2c3ccccc3NC3=C(C(=O)CC(C)(C)C3)C2c2ccc(Cl)cc2Cl)cc1` (stereo not drawn) [compound 157], for which the melting point was found to be 238 °C. Moreover, the IC50 in data set [1] (setting [3]) was determined as 29.5 µM. Moreover, the EC50 in data set [2] (setting [4]) is 1.95 µM.

As for `CC(=O)N1c2c(Br)cccc2NC2=C(C(=O)CC(C)(C)C2)C1c1ccc(Cl)cc1Cl` (stereo not drawn) [compound 311], the melting point was above 260 °C. This compound also showed an IC50 in data set [1] (setting [3]) of 13.3 µM. Moreover, in data set [2] (setting [4]), the EC50 was found to be 4.03 µM.

In the case of `CC(=O)N1c2c(C#N)cccc2NC2=C(C(=O)CC(C)(C)C2)C1c1ccc(Cl)cc1Cl` (stereo not drawn) [compound 313], the melting point is 248 °C. This compound displayed a half-maximal inhibitory concentration (IC50) in data set [1] (setting [3]) of 6.04 µM. In addition, the EC50 in data set [2] (setting [4]) is 27.5 µM.

`CC(=O)N1c2cccc(C)c2NC2=C(C(=O)CC(C)(C)C2)C1c1ccc(Cl)cc1Cl` (stereo not drawn) [compound 315] yielded a melting point above 260 °C. Also, the half-inhibitory concentration (IC50) in data set [1] (setting [3]) is 4.78 µM. Moreover, in data set [2] (setting [4]), the EC50 worked out at 14.6 µM.

The compound `CC(=O)N1c2ccc(C(=O)NCCN3CCOCC3)cc2NC2=C(C(=O)CC(C)(C)C2)C1c1ccc(Cl)cc1Cl` (stereo not drawn) [compound 321, 10-acetyl-N-(morpholin-4-ylethyl)-11-(2,4-dichlorophenyl)-3,3-dimethyl-1-oxo-2,3,4,5,10,11-hexahydro-1H-dibenzo[b,e][1,4]diazepine-7-carboxamide] had a melting point above 260 °C. In data set [1] (setting [3]), this compound gave a half-maximal inhibitory concentration (IC50) above 133 µM. In data set [2] (setting [4]), the EC50 came out at 72.2 µM.

`CC(=O)N1c2ccccc2N(Cc2ccccc2)C2=C(C(=O)CC(C)(C)C2)C1c1ccc(Cl)cc1Cl` (stereo not drawn) [compound 323] displayed a melting point of 235 °C. This compound returned a half-maximal inhibitory concentration (IC50) in data set [1] (setting [3]) of 53.8 µM. Also, the EC50 in data set [2] (setting [4]) amounted to 1.65 µM.

For the compound `Cc1cccc2c1NC(c1ccc(Cl)cc1Cl)C1=C(CC(C)(C)CC1=O)N2` (stereo not drawn) [compound 469], the melting point was found to be 235 °C. In data set [1] (setting [5]), this compound gave an IC50 of 32.3 µM. In addition, the concentration giving a half-maximal response (EC50) in data set [2] (setting [6]) was 8.24 µM.

For `CC1(C)CC(=O)C2=C(C1)Nc1cccc(C#N)c1NC2c1ccc(Cl)cc1Cl` (stereo not drawn) [compound 470], the melting point is 225 °C. Also, in data set [1] (setting [5]), inhibition was half-maximal at 23.3 µM (IC50). Besides, the EC50 in data set [2] (setting [6]) came out at 16.5 µM.

In the case of `Cc1cccc2c1NC1=C(C(=O)CC(C)(C)C1)C(c1ccc(Cl)cc1Cl)N2` (stereo not drawn) [compound 471], the melting point came to 225 °C. This compound showed a concentration for half-maximal inhibition (IC50) in data set [1] (setting [5]) above 133 µM. The half-maximal effective concentration (EC50) in data set [2] (setting [6]) amounted to 14.7 µM.

In the case of `CC1(C)CC(=O)C2=C(C1)Nc1c(N)cccc1NC2c1ccc(Cl)cc1Cl` (stereo not drawn) [compound 474], the melting point turned out to be 248 °C. The compound also displayed an IC50 in data set [1] (setting [5]) of 1.72 µM. For the same compound, the half-maximal effective concentration (EC50) in data set [2] (setting [6]) was 34.1 µM.
